Data reported in patent US8497272B2, “Compounds for treating proliferative disorders” (Synta Pharmaceuticals Corp., priority 2006, dated 2013).

System: inducible human Hsp70
Assay: Hsp70 RNA induction by quantitative PCR analysis in Ramos B cells
Format: cell-based
Conditions: 500 nM compound, 6 hours, Hsp70 RNA relative to gapdh; for % induction relative to Compound X: Compound X set to 100%; for fold induction at 0.5 µM: Homo sapiens, read-out: fold induction over DMSO
Description: The ability of the compounds of the invention to induce Hsp70 RNA induction by quantitative PCR analysis was examined. Ramos B cells were treated with 500 nM each compound for 6 hours and the RNA was isolated from the cells. Quantitative PCR was performed as described below:
Details for Quantitative PCR are as follows:
500 ng of RNA from each sample was used for cDNA synthesis using iScript cDNA Synthesis Kit (Biorad, Cat#170-8891). 1 ul of cDNA mixture was used with the iQ SYBR Green Supermix (Biorad, Cat#170-8882) to perform quantitative PCR in an iCycler machine (Biorad) using standard protocols. QPCR for each sample/time point was performed in duplicate. The following primers for inducible human Hsp70 and gapdh were used: […]
Ct values were obtained from the iCycler program and used in an equation (2^−ΔΔCT) for determining the amount of target relative to gapdh expression. This compares the relative expression of Hsp70 to the corresponding levels of gapdh in each sample. Duplicate wells were averaged. The amount of N-Malonyl-bis(N′-methyl-N′ thiobenzoylhydrazide) (Compound X) induction of Hsp70 was set to 100% and the percent of induction of Hsp70 by the compounds of the invention was determined relative to 100%.

| SMILES | % induction relative to Compound X [%] | fold induction at 0.5 µM |
| --- | --- | --- |
| CN(NC(=O)CC(=O)NN(C)C(=S)Nc1ccccc1)C(=S)Nc1ccccc1 [Compound 67] | 0.09 | 0.22 |
| CN(NC(=O)c1cc(=O)cc(C(=O)NN(C)C(=S)c2ccccc2)o1)C(=S)c1ccccc1 [Compound 74, N′2,N′6-dimethyl-4-oxo-N′2,N′6-di(phenylcarbonothioyl)-4H-pyran-2,6-dicarbohydrazide] | 0.22 | 0.59 |
| CN(NC(=O)CC(=O)NN(C)C(=S)NC1CC1)C(=S)NC1CC1 [Compound 69] | 0.12 | 0.3 |
| CN(NC(=O)CC(=O)NN(C)c1nccs1)c1nccs1 [Compound 71] | 0.33 | 0.87 |
| COC(=S)N(C)NC(=O)CC(=O)NN(C)C(=S)OC [Compound 70] | 0.57 | 1.41 |
